Assay results taken from ChEMBL document CHEMBL1149403, “Design, synthesis, and anti-Helicobacter pylori activity of erythromycin A (E)-9-oxime ether derivatives” (2006).
In brackets after ≈: the same amount, converted by molar mass.

Test system: Helicobacter pylori
Assay: Inhibitory activity against Helicobacter pylori NCTC-10638
Format: functional

| MIC [µg/mL] | Structure (SMILES) |
| --- | --- |
| 0.04 (≈ 0.0541 µM) | CC[C@H]1OC(=O)[C@H](C)C(=O)[C@H](C)C(O[C@@H]2O[C@H](C)C[C@H](N(C)C)[C@@H]2O)[C@](C)(OC)C[C@@H](C)/C(=N\OCOc2ccccc2OC)[C@H](C)[C@@H](O)[C@]1(C)O (some centres not stated) |
| 0.03 (≈ 0.0339 µM) | CC[C@H]1OC(=O)[C@H](C)C(O[C@H]2C[C@](C)(OC)[C@@H](O)[C@@H](C)O2)[C@H](C)C(O[C@@H]2O[C@H](C)C[C@H](N(C)C)[C@@H]2O)[C@](C)(O)C[C@@H](C)/C(=N\OCOc2ccccc2OC)[C@H](C)[C@@H](O)[C@]1(C)O (some centres not stated) |
| 0.02 (≈ 0.0271 µM) | CC[C@H]1OC(=O)[C@H](C)C(=O)[C@H](C)C(O[C@@H]2O[C@H](C)C[C@H](N(C)C)[C@@H]2O)[C@](C)(OC)C[C@@H](C)/C(=N\OCOc2ccc(OC)cc2)[C@H](C)[C@@H](O)[C@]1(C)O (some centres not stated) |
| 0.02 (≈ 0.0222 µM) | CC[C@H]1OC(=O)[C@H](C)C(O[C@H]2C[C@](C)(OC)[C@@H](O)[C@@H](C)O2)[C@H](C)C(O[C@@H]2O[C@H](C)C[C@H](N(C)C)[C@@H]2O)[C@](C)(OC)C[C@@H](C)/C(=N\OCOc2ccccc2OC)[C@H](C)[C@@H](O)[C@]1(C)O (some centres not stated) |
| 0.02 (≈ 0.0226 µM) | CC[C@H]1OC(=O)[C@H](C)C(O[C@H]2C[C@](C)(OC)[C@@H](O)[C@@H](C)O2)[C@H](C)C(O[C@@H]2O[C@H](C)C[C@H](N(C)C)[C@@H]2O)[C@](C)(O)C[C@@H](C)/C(=N\OCOc2ccc(OC)cc2)[C@H](C)[C@@H](O)[C@]1(C)O (some centres not stated) |
| 0.03 (≈ 0.0334 µM) | CC[C@H]1OC(=O)[C@H](C)C(O[C@H]2C[C@](C)(OC)[C@@H](O)[C@@H](C)O2)[C@H](C)C(O[C@@H]2O[C@H](C)C[C@H](N(C)C)[C@@H]2O)[C@](C)(OC)C[C@@H](C)/C(=N\OCOc2ccc(OC)cc2)[C@H](C)[C@@H](O)[C@]1(C)O (some centres not stated) |
| 0.02 (≈ 0.0267 µM) | CC[C@H]1OC(=O)[C@H](C)[C@@H](O[C@H]2C[C@@](C)(OC)[C@@H](O)[C@H](C)O2)[C@H](C)[C@@H](O[C@@H]2O[C@H](C)C[C@H](N(C)C)[C@H]2O)[C@](C)(OC)C[C@@H](C)C(=O)[C@H](C)[C@@H](O)[C@]1(C)O [CLARITHROMYCIN] |
